Test results reported in ChEMBL document CHEMBL5380778, “Structure-Directed Discovery of Potent Soluble Epoxide Hydrolase Inhibitors for the Treatment of Inflammatory Diseases” (J Med Chem, 2023).

How the values were obtained:
[1] = biological target: T1, Bifunctional epoxide hydrolase 2 (Mus musculus, UniProt P34914); assay: Inhibition of recombinant mouse soluble epoxide hydrolase using PHOME as substrate assessed as 6-methoxynaphthaldehyde product formation preincubated with compound for 10 mins followed by substrate addition and measured by fluorescence based analysis
T1 sequence (P34914 whole entry): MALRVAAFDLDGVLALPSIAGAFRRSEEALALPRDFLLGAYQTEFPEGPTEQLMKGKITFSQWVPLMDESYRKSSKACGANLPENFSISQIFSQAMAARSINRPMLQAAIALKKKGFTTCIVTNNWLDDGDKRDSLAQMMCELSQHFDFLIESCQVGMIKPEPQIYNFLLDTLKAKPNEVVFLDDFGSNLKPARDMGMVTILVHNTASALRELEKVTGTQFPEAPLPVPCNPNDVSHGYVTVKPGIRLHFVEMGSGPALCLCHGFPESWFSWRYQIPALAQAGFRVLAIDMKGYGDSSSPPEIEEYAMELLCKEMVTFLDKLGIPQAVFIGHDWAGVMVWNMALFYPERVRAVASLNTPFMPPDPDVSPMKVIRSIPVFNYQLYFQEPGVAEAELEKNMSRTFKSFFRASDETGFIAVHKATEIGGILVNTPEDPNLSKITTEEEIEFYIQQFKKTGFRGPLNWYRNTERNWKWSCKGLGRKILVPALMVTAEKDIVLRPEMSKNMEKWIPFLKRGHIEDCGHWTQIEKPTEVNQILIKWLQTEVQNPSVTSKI

[2] = biological target: T2, Bifunctional epoxide hydrolase 2 (Homo sapiens, UniProt P34913); assay: Inhibition of recombinant human soluble epoxide hydrolase using PHOME as substrate assessed as 6-methoxynaphthaldehyde product formation preincubated with compound for 10 mins followed by substrate addition and measured by fluorescence based analysis
T2 sequence (P34913 whole entry): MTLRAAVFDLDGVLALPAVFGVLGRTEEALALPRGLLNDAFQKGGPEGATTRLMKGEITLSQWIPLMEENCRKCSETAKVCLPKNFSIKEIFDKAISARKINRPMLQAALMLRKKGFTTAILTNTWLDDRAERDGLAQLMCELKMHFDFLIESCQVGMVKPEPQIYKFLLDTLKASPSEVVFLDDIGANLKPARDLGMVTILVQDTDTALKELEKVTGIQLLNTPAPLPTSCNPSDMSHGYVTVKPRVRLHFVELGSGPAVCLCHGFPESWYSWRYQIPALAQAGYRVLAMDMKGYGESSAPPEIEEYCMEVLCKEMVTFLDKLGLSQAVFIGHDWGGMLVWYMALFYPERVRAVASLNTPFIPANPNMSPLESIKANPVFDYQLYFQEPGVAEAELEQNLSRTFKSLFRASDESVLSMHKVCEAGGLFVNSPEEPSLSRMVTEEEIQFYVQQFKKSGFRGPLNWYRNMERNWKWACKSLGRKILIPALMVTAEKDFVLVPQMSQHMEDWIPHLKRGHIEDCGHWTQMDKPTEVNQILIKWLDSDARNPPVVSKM

SMILES | IC50 [1] | IC50 [2]
CC(O)CNC(=O)C1CCN(C(=O)c2ccc(NC(=O)N[C@@]34C[C@@H]5C[C@@](C)(C[C@@](C)(C5)C3)C4)c(F)c2)CC1 (stereo partly drawn) | 0.18 nM | 4.5 nM
C[C@]12C[C@@H]3C[C@](C)(C1)C[C@@](NC(=O)Nc1ccc(CN4CCCC(C(N)=O)C4)cc1F)(C3)C2 (stereo partly drawn) | 0.09 nM | 0.14 nM
CCC(=O)N1CCC(CC(=O)N2CCCN(Cc3ccc(NC(=O)N[C@@]45C[C@@H]6C[C@@](C)(C[C@@](C)(C6)C4)C5)c(F)c3)CC2)CC1 | 0.07 nM | 0.33 nM
C[C@]12C[C@@H]3C[C@](C)(C1)C[C@@](NC(=O)Nc1ccc(CN4CCCC(C(=O)NCCO)C4)cc1F)(C3)C2 (stereo partly drawn) | 0.18 nM | 0.63 nM
C[C@]12C[C@@H]3C[C@](C)(C1)C[C@@](NC(=O)Nc1ccc(C(=O)NC4CCC(C(=O)N(CCO)CCO)CC4)cc1F)(C3)C2 (stereo partly drawn) | 0.23 nM | 2.94 nM
CCN(CC)CCN1CCC(CC(=O)N2CCCN(Cc3ccc(NC(=O)N[C@@]45C[C@@H]6C[C@@](C)(C[C@@](C)(C6)C4)C5)c(F)c3)CC2)CC1 | 1.37 nM | 2.1 nM
C=CC(=O)N1CCCN(C(=O)C2CCCN(Cc3ccc(NC(=O)N[C@@]45C[C@@H]6C[C@@](C)(C[C@@](C)(C6)C4)C5)c(F)c3)C2)CC1 (stereo partly drawn) | 1.1 nM | 0.42 nM
CC(C)(C)OC(=O)N1CCN(CCNC(=O)C2CCC(NC(=O)c3ccc(NC(=O)N[C@@]45C[C@@H]6C[C@@](C)(C[C@@](C)(C6)C4)C5)c(F)c3)CC2)CC1 (stereo partly drawn) | 2 nM | 183 nM
C[C@]12C[C@@H]3C[C@](C)(C1)C[C@@](NC(=O)Nc1ccc(C(=O)NC4CCC(C(=O)N5CCC(CCO)CC5)CC4)cc1F)(C3)C2 (stereo partly drawn) | 0.53 nM | 16 nM
C[C@]12C[C@@H]3C[C@](C)(C1)C[C@@](NC(=O)Nc1ccc(CN4CCCC(C(=O)N(CCO)CCO)C4)cc1F)(C3)C2 (stereo partly drawn) | 0.29 nM | 0.28 nM
C[C@]12C[C@@H]3C[C@](C)(C1)C[C@@](NC(=O)Nc1ccc(C(=O)NC4CCC(C(=O)NC(CO)(CO)CO)CC4)cc1F)(C3)C2 (stereo partly drawn) | 0.12 nM | 0.35 nM
CC(O)CNC(=O)C1CCCN(C(=O)c2ccc(NC(=O)N[C@]34C[C@@H]5C[C@@](C)(C[C@@](C)(C5)C3)C4)c(F)c2)C1 (stereo partly drawn) | 0.23 nM | 0.28 nM
COC(=O)N1CCC(CC(=O)N2CCCN(Cc3ccc(NC(=O)N[C@@]45C[C@@H]6C[C@@](C)(C[C@@](C)(C6)C4)C5)c(F)c3)CC2)CC1 | 0.41 nM | 1.1 nM
CCN(CC)C(=O)C1CCN(C(=O)c2ccc(NC(=O)N[C@@]34C[C@@H]5C[C@@](C)(C[C@@](C)(C5)C3)C4)c(F)c2)CC1 | 0.53 nM | 2.2 nM
CCC(C)C(=O)N1CCC(CC(=O)N2CCCN(Cc3ccc(NC(=O)N[C@@]45C[C@@H]6C[C@@](C)(C[C@@](C)(C6)C4)C5)c(F)c3)CC2)CC1 (stereo partly drawn) | 0.16 nM | 0.77 nM
CC(CN(C)C)N1CCC(CC(=O)N2CCCN(C(=O)c3ccc(NC(=O)N[C@@]45C[C@@H]6C[C@@](C)(C[C@@](C)(C6)C4)C5)c(F)c3)CC2)CC1 (stereo partly drawn) | 0.8 nM | 19.6 nM
C[C@]12C[C@@H]3C[C@](C)(C1)C[C@@](NC(=O)Nc1ccc(C(=O)N4CCC(C(=O)NCCO)CC4)cc1F)(C3)C2 | 0.26 nM | 3.43 nM
CN(C)C(=O)C1CCCN(Cc2ccc(NC(=O)N[C@@]34C[C@@H]5C[C@@](C)(C[C@@](C)(C5)C3)C4)c(F)c2)C1 (stereo partly drawn) | 0.12 nM | 0.7 nM
C[C@]12C[C@@H]3C[C@](C)(C1)C[C@@](NC(=O)Nc1ccc(CN4CCC(C(=O)NC(CO)(CO)CO)CC4)cc1F)(C3)C2 | 0.12 nM | 6.51 nM
C[C@]12C[C@@H]3C[C@](C)(C1)C[C@@](NC(=O)Nc1ccc(C(=O)NC4CCC(C(N)=O)CC4)cc1F)(C3)C2 (stereo partly drawn) | 0.35 nM | 0.84 nM
C[C@]12C[C@@H]3C[C@](C)(C1)C[C@@](NC(=O)Nc1ccc(C(=O)N4CCCC(C(=O)O)C4)cc1F)(C3)C2 (stereo partly drawn) | 1.3 nM | 4.6 nM
CCC(=O)N1CCCN(C(=O)C2CCCN(C(=O)c3ccc(NC(=O)N[C@@]45C[C@@H]6C[C@@](C)(C[C@@](C)(C6)C4)C5)c(F)c3)C2)CC1 (stereo partly drawn) | 0.58 nM | 0.56 nM

SMILES | IC50 [1] | IC50 [2]
CN(C)CCN1CCC(CC(=O)N2CCCN(Cc3ccc(NC(=O)N[C@@]45C[C@@H]6C[C@@](C)(C[C@@](C)(C6)C4)C5)c(F)c3)CC2)CC1 | 0.67 nM | 2.59 nM
C=C(C)C(=O)N1CCC(CC(=O)N2CCCN(C(=O)c3ccc(NC(=O)N[C@@]45C[C@@H]6C[C@@](C)(C[C@@](C)(C6)C4)C5)cc3)CC2)CC1 | 0.13 nM | 1 nM
C[C@]12C[C@@H]3C[C@](C)(C1)C[C@@](NC(=O)Nc1ccc(CN4CCCC(C(=O)N5CCN(CCO)CC5)C4)cc1F)(C3)C2 (stereo partly drawn) | 0.55 nM | 0.98 nM
CCN(CC)C(=O)C1CCCN(C(=O)c2ccc(NC(=O)N[C@]34C[C@@H]5C[C@@](C)(C[C@@](C)(C5)C3)C4)c(F)c2)C1 (stereo partly drawn) | 0.38 nM | 0.35 nM
CC(O)CNC(=O)C1CCN(Cc2ccc(NC(=O)N[C@@]34C[C@@H]5C[C@@](C)(C[C@@](C)(C5)C3)C4)c(F)c2)CC1 (stereo partly drawn) | 0.47 nM | 6 nM
C=C(C)C(=O)N1CCCN(C(=O)C2CCCN(Cc3ccc(NC(=O)N[C@@]45C[C@@H]6C[C@@](C)(C[C@@](C)(C6)C4)C5)c(F)c3)C2)CC1 (stereo partly drawn) | 1.3 nM | 0.9 nM
C[C@]12C[C@@H]3C[C@](C)(C1)C[C@@](NC(=O)Nc1ccc(CN4CCCN(C(=O)CC5CCN(CC(O)CO)CC5)CC4)cc1F)(C3)C2 (stereo partly drawn) | 1.25 nM | 58.1 nM
C[C@]12C[C@@H]3C[C@](C)(C1)C[C@@](NC(=O)Nc1ccc(C(=O)N4CCCC(C(=O)N5CCN(CCO)CC5)C4)cc1F)(C3)C2 (stereo partly drawn) | 0.15 nM | 0.84 nM
CCC(=O)N1CCC(CC(=O)N2CCCN(C(=O)c3ccc(NC(=O)N[C@@]45C[C@@H]6C[C@@](C)(C[C@@](C)(C6)C4)C5)c(F)c3)CC2)CC1 | 0.39 nM | 0.9 nM
C[C@]12C[C@@H]3C[C@](C)(C1)C[C@@](NC(=O)Nc1ccc(CN4CCC(C(=O)NC(CO)CO)CC4)cc1F)(C3)C2 | 2.25 nM | 31.6 nM
C[C@]12C[C@@H]3C[C@](C)(C1)C[C@@](NC(=O)Nc1ccc(C(=O)NC4CCC(C(=O)NC(CO)CO)CC4)cc1F)(C3)C2 (stereo partly drawn) | 0.55 nM | 0.91 nM
C[C@]12C[C@@H]3C[C@](C)(C1)C[C@@](NC(=O)Nc1ccc(CN4CCCN(C(=O)CC5CCN(CCO)CC5)CC4)cc1F)(C3)C2 | 0.61 nM | 4.69 nM
C[C@]12C[C@@H]3C[C@](C)(C1)C[C@@](NC(=O)Nc1ccc(C(=O)NC4CCC(C(=O)NCCO)CC4)cc1F)(C3)C2 (stereo partly drawn) | 0.18 nM | 0.8 nM
C[C@]12C[C@@H]3C[C@](C)(C1)C[C@@](NC(=O)Nc1ccc(CN4CCCC(C(=O)N5CCCN(C(=O)C6CC6)CC5)C4)cc1F)(C3)C2 (stereo partly drawn) | 0.8 nM | 0.42 nM
C[C@]12C[C@@H]3C[C@](C)(C1)C[C@@](NC(=O)Nc1ccc(CN4CCC(C(=O)N(CCO)CCO)CC4)cc1F)(C3)C2 | 0.55 nM | 6.72 nM
C[C@]12C[C@@H]3C[C@](C)(C1)C[C@@](NC(=O)Nc1ccc(CN4CCCC(C(=O)O)C4)cc1F)(C3)C2 (stereo partly drawn) | 0.61 nM | 2.3 nM
C[C@]12C[C@@H]3C[C@](C)(C1)C[C@@](NC(=O)Nc1ccc(CN4CCC(C(N)=O)CC4)cc1F)(C3)C2 | 0.06 nM | 1.54 nM
CC(=O)N1CCCN(C(=O)C2CCCN(C(=O)c3ccc(NC(=O)N[C@@]45C[C@@H]6C[C@@](C)(C[C@@](C)(C6)C4)C5)c(F)c3)C2)CC1 (stereo partly drawn) | 0.26 nM | 0.6 nM
CCC(C)C(=O)N1CCCN(C(=O)C2CCCN(Cc3ccc(NC(=O)N[C@@]45C[C@@H]6C[C@@](C)(C[C@@](C)(C6)C4)C5)c(F)c3)C2)CC1 (stereo partly drawn) | 0.62 nM | 0.25 nM
CCC(C)C(=O)N1CCCN(C(=O)C2CCCN(C(=O)c3ccc(NC(=O)N[C@@]45C[C@@H]6C[C@@](C)(C[C@@](C)(C6)C4)C5)c(F)c3)C2)CC1 (stereo partly drawn) | 0.9 nM | 1.4 nM
CC(=O)N1CCC(CC(=O)N2CCCN(Cc3ccc(NC(=O)N[C@@]45C[C@@H]6C[C@@](C)(C[C@@](C)(C6)C4)C5)c(F)c3)CC2)CC1 | 0.11 nM | 0.49 nM
C[C@]12C[C@@H]3C[C@](C)(C1)C[C@@](NC(=O)Nc1ccc(CN4CCCC(C(=O)NC(CO)(CO)CO)C4)cc1F)(C3)C2 (stereo partly drawn) | 0.32 nM | 0.14 nM
